Reference: US12350267B2, “Bile acid recycling inhibitors for treatment of pediatric cholestatic liver diseases” (SHIRE HUMAN GENETIC THERAPIES, INC., priority 2011, dated 2025)

Tests used:
[1] = tested on: fecal bile acid excretion and plasma bile acid concentrations; assay: ZDF rat study of 264W94: fecal bile acid excretion and plasma bile acid concentrations; format: in vivo, Male Zucker diabetic fatty rats (ZDF/GmiCrl-fa/fa); conditions: 2 weeks
Method: Animal preparation. Male Zucker diabetic fatty rats (ZDF/GmiCrl-fa/fa) were purchased from Charles River (Raleigh, NC) and housed under controlled conditions (12:12 light-dark cycle, 24° C. and 50% relative humidity) with free access to rodent food (Purina 5008, Harlan Teklad, Indianapolis, IN). All rats arrived at seven weeks of age (±3 days). After a one-week acclimation period, rats were anesthetized with isoflurane (Abbott Laboratories, IL) and tail-vein blood samples were collected at 9 am without fasting. Blood glucose levels were measured using a glucometer (Bayer, Leverkusen, Germany). In order to ensure balanced treatment groups, ZDF rats were assigned to six treatment groups based upon baseline glucose: vehicle (0.5% HPMC, 0.1% Tween80) and five doses of 264W94 (0.001, 0.01, 0.1, 1, 10 mg/kg). All treatments were given via oral gavage twice a day and animals were followed for two weeks with blood samples collected from tail vein at the end of each week at 9 am without fasting. Fecal samples were collected for 24 hours during the second week of treatment.
Measurement of clinical chemistry parameters. Non-esterified fatty acids (NEFA), bile acids, and bile acids in fecal extraction were measured using the Olympus AU640 clinical chemistry analyzer (Beckman Coulter, Irving, TX).

[2] = tested on: Postprandial Total Serum Bile Acids; assay: Duration of action of LUM001 on dog serum bile acids, Method 2 (dosing before feeding); format: in vivo, Beagle dogs; conditions: dogs n=9, 0.05 mg/kg (2nd dose column), dosing time 0 hr, feeding time 2 hr
Method: (§1) Dosage preparation and administration: LUM001 was dissolved in water at concentrations that required the administration of 0.2 ml/kg of solution. Solutions were placed into gelatin capsules, Torpac Inc., size 13 Batch 594, East Hanover NJ, and administered orally.
(§2) Dogs: Male beagle dogs were obtained from Covance Research Products, Cumberland VA or Marshall Farms USA, Inc., North Rose NY. A total of 20 dogs, 1 to 5 years old, 6.8 to 15.6 kg body weight, were used in these experiments. The dogs were conditioned to a 12 hour light/dark cycle and maintained on a feeding restriction of 1 hour per day access to food (Richman Standard Certified Canine Diet #5007, PMI Nutrition, Inc., St Louis MO) from 7 to 8 AM. They were trained to eat a special meal promptly within 20 minutes when presented (1 can. 397 g, Evanger's 100% Beef for Dogs, Evanger's Dog and Cat Food Co., Inc., Wheeling IL, mixed with 50 g of sharp cheddar cheese).
Serum Total Bile Acid (SBA) Measurement: SBA was measured by an enzymatic assay. SBA values are expressed as μg of total bile acids/ml of serum.
Experiments to Measure the Duration of Action of LUM001: In dogs a single experimental meal produces a postprandial rise in SBA that is elevated to a peak at 1 hour after feeding and constant for an additional 3 hours. Previous experiments (2) indicate that LUM001 remains active for more than 4.5 hours. […]

[3] = tested on: Postprandial Total Serum Bile Acids; conditions: dog; previous experiments (2); cited from earlier work
[4] = tested on: Postprandial Total Serum Bile Acids; assay: Time to onset of activity of LUM001 on postprandial serum bile acids in dogs; format: in vivo, Beagle dogs; conditions: dog; dose increased above ED50 level to 1 mg/kg
Method: Animal Study on the Duration of Action and Time to Onset of ASBTI Activity of a Single Oral Dose of LUM001 on Postprandial Total Serum Bile Acids in Beagle Dogs
Test Compound: LUM001—Form I
as §1, §2
Serum Total Bile Acid (SBA) Measurement: SBA was measured by an enzymatic assay. SBA values are expressed as μg of total bile acids/ml of serum. […]

[5] = Pharmacokinetics of LUM001 in pediatric subjects (study NB-00-02-014); format: in vivo; conditions: measured on day eight
Method: LUM001 has been administered to forty patients under the age of 18 years old. […] The drug was administered once-a-day (QD) in the morning for fourteen days. […] These doses are similar to those using to treat children with cholestatic diseases.

[6] = tested on: serum bile acids and fecal bile acids; assay: Phase 1 ascending multiple oral doses of LUM001 in healthy subjects: serum and fecal bile acids; format: in vivo; conditions: healthy adult subjects; multiple oral doses qAM, 28 days
Method: A Randomized, Double-Blind, Placebo Controlled, Safety, Tolerability, Pharmacokinetic, and Pharmacodynamic Study of Ascending Multiple Oral Doses of LUM001 in Healthy Subjects
This Phase 1 study was a randomized, double-blind, placebo-controlled study of ascending multiple oral doses of LUM001 in healthy, adult subjects. This study was conducted at a single center. There were 13 LUM001 dosing panels: 10, 20, 60, 100, and 20 mg every morning (qAM) (2) (i.e., the regimen was tested a second time in the study), 5 mg every evening (qPM), 0.5, 1, 2.5, 5, 2.5 (2), 5 (2), and 0.5 to 5 mg qAM dose titration. Most of the dosing panels included subjects treated with matching placebo. […]
SBA were analyzed as part of the routine clinical analysis of the serum samples collected at each time point.
Fecal Bile Acid Analysis: Fecal samples were collected for all panels except the dose-titration panel, 2.5 (2) and 5 mg (2), on Days 9 through 14 and 23 through 28 (data shown in FIG. 4). Twenty-four hour FBA excretions were quantified by Pharmacia for Days 9 through 14 and 23 through 28. […] The weight of each 24-hour fecal collection was recorded on the CRFs. […]
An aliquot for each 24-hour fecal sample collected on Days 23 through 28 was combined, homogenized, and analyzed for bile acid species concentrations by ANAPHARM. […]

plasma bile acid levels = assay: Plasma bile acid levels of ZDF rats after ascending doses of SC-435 and LUM002; format: in vivo, Male ZDF rats; conditions: ZDF rats n=4; oral gavage twice a day for 2 weeks; all doses (SC-435 1, 10 or 30 mg/kg; LUM002 0.3, 1, 3, 10 or 30 mg/kg)
Method: (§3) FIG. 2. Plasma bile acid levels of ZDF rats after administration of ascending doses of SC-435 and LUM002. Male ZDF rats (n=4) were administered vehicle, SC-435 (1, 10 or 30 mg/kg) or LUM002 (0.3, 1, 3, 10 or 30 mg/kg) by oral gavage twice a day for 2 weeks. Plasma bile acid levels were determined at the end of the second week. Data are expressed as mean values±SEM.
as §3, with “Plasma” for “FIG. 2. Plasma”, “week. […]” for “week.”

[7] = ZDF rats, oral gavage twice a day

With CCCC[C@]1(CC)CS(=O)(=O)c2cc(OC)c(OC)cc2[C@@H](c2ccccc2)N1 [Compound 264W94] the “Fecal bile acid concentrations elevated compared to vehicle treated rats” value ([1]; 0.001-10 mg/kg oral gavage twice a day, maximum elevation (up to)) was “up to 6.5 fold”, the “Plasma bile acid concentrations” value ([1]; ZDF rats, 0.001-10 mg/kg oral gavage twice a day) was “decreased dose-dependently” and the “ED50 for elevation of fecal bile acid concentrations” value [1, 7] was 0.17 mg/kg. The “Fecal NEFA” value [1, 7] was “slightly increased”.
For CCCCC1(CCCC)CS(=O)(=O)c2ccc(N(C)C)cc2[C@@H](c2ccc(OCc3ccc(C[N+]45CCN(CC4)CC5)cc3)cc2)[C@H]1O [LUM001], the “Serum Bile Acid, Mean” value [2] is listed as 1.7 µg/mL, the “Time LUM001 remains active (previous experiments)” value [3] is listed as “more than 4.5 hours” and the “Onset time to significant SBA lowering versus ED50 dose” value [4] is listed as “did not shorten”. For the same compound, the “Average serum drug exposure” value ([5]; Subject 0510, 5.0 mg QD (168.4 μg/kg)) was 0,0 ng/ml, the “Systemic exposure / absorption by the children” value ([5]; patients under 18, QD in the morning) was “minimally absorbed” and the Fecal bile acids [6] was “significant increase”. The Serum bile acids [6] was “significant reduction”.
With CCCC[C@]1(CC)CS(=O)(=O)c2ccc(N(C)C)cc2[C@@H](c2cccc(NC(=O)N[C@@H]3O[C@H](COS(=O)(=O)[O-])[C@@H](O)[C@H](OCc4ccccc4)[C@H]3O)c2)[C@H]1O.[K+] [LUM002] the “Plasma bile acid levels” value (plasma bile acid levels) was “decreased”.
For CCCCC1(CCCC)CS(=O)(=O)c2ccc(N(C)C)cc2[C@@H](c2ccc(OCCCC[N+]34CCN(CC3)CC4)cc2)[C@H]1O.CS(=O)(=O)[O-] [SC-435, 1-[4-[4-[(4R,5R)-3,3-dibutyl-7-(dimethylamino)-2,3,4,5-tetrahydro-4-hydroxy-1,1-dioxido-1-benzothiepin-5-yl]phenoxy]butyl]4-aza-1-azoniabicyclo[2.2.2]octane methanesulfonate salt, reference compound], the “Plasma bile acid levels” value (plasma bile acid levels) was “decreased”.
